In this experiment the test system is αS452fs (co-expressed with βγ-ENaC). In words: Whole-cell patch clamp, αS452fs + WT βγ. Format: cell-based, human. To be noted: read-out: EC50, solnatide, HEK-293, whole-cell, -100 mV, n = 5, p < 0.01 vs WT. The procedure:
Point mutations of α-, β-, γ- and δ-hENaC and PHA1B frameshift mutations of α-hENaC were prepared with the QuikChange Lightning Site-Directed Mutagenesis Kit (Agilent Technologies, CA, USA). Mutagenic primers were designed individually with the Primer Design Program provided on the producer’s website or for the frameshift mutations the same base changes as reported in patients (see Table 2) were performed. Primers were ordered from Sigma-Aldrich, Vienna, Austria.
HEK-293 cells were transfected 1 day after cell seeding using X-tremeGENE HP DNA transfection reagent (Roche Diagnostics, Mannheim, Germany) according to the manufacturer’s protocol. A set of WT or mutant αβγ- or δβγ-hENaC, or α-, β-, γ-, or δ-hENaC alone was used, and the ratio of DNA to transfection reagent was 1:3. The expression was highest 48–72 h after transfection.
Electrophysiological experiments were performed as described in detail by Shabbir et al. ([16]). […] Currents were recorded with the patch clamp method in the whole-cell mode. The chamber contained 1 ml of the bath solution of the following composition (in mM): 145 NaCl, 2.7 KCl, 1.8 CaCl2, 2 MgCl2, 5.5 glucose, and 10 HEPES, adjusted to pH 7.4 with 1 M NaOH solution. Micropipettes were pulled from thin-walled borosilicate glass capillaries (Harvard Apparatus, Holliston, MA, USA) with a DMZ Zeitz Puller to obtain electrode resistances ranging from 2 to 5 MΩ. […]

In general, EC50 refers to the concentration giving half of the maximal effect.

Turning to `C[C@@H]1NC(=O)CNC(=O)[C@H](CCC(=O)O)NC(=O)[C@@H]2CCCN2C(=O)[C@H]([C@@H](C)O)NC(=O)[C@H](CCC(=O)O)NC(=O)[C@H](CCCNC(=N)N)NC(=O)[C@H](CCC(N)=O)NC(=O)CNC(=O)[C@@H](N)CSSC[C@@H](C(=O)O)NC(=O)[C@H](Cc2ccc(O)cc2)NC(=O)[C@H](Cc2c[nH]c3ccccc23)NC(=O)[C@@H]2CCCN2C(=O)[C@H](CCCCN)NC(=O)[C@H](C)NC(=O)[C@H](CCC(=O)O)NC1=O` [solnatide, L-cysteine, L-cysteinylglycyl-L-glutaminyl-L-arginyl-L-α-glutamyl-L-threonyl-L-prolyl-L-α-glutamylglycyl-L-alanyl-L-α-glutamyl-L-alanyl-L-lysyl-L-prolyl-L-tryptophyl-L-tyrosyl-, cyclic (1→17)-disulfide], the EC50 was found to be 0.0685 ± 0.0041 µM.

The values are drawn from paper PMC5447021, “TNF Lectin-Like Domain Restores Epithelial Sodium Channel Function in Frameshift Mutants Associated with Pseudohypoaldosteronism Type 1B” (Frontiers in Immunology, 2017).
